Experimental data: ChEMBL document CHEMBL4190168 (Medchemcomm, 2016)

Legend:
[1] = Solubility of the compound in water; format: physicochemical
[2] = tested on: EA.hy 926; test: Antiproliferative activity against human EAhy926 cells after 48 hrs by MTT assay; format: functional, cell-based; conditions: EA.hy 926, 48 h

Row | SMILES | solubility [1] [µg/mL] | IC50 [2] [µM]
1 | Cc1nc(CNCCCNCc2cc3c4ccccc4n(Cc4cccc(Cl)c4)c3c(C)n2)cc2c3ccccc3n(Cc3cccc(Cl)c3)c12.Cl | > 10000 | 
2 | CC(C)c1nc(CNCCCNCc2cc3c4ccccc4n(Cc4ccccc4)c3c(C(C)C)n2)cc2c3ccccc3n(Cc3ccccc3)c12 |  | 13.5
3 | CCn1c2ccccc2c2cc(CNCCCNCc3cc4c5ccccc5n(CC)c4c(-c4cc(OC)c(OC)c(OC)c4)n3)nc(-c3cc(OC)c(OC)c(OC)c3)c21.Cl | > 10000 | 
4 | COc1ccc(-c2nc(CNCCCCCCNCc3cc4c5ccccc5n(Cc5ccccc5)c4c(-c4ccc(OC)cc4)n3)cc3c4ccccc4n(Cc4ccccc4)c23)cc1.Cl | > 10000 | 
5 | c1ccc(Cn2c3ccccc3c3cc(CNCCCCCCNCc4cc5c6ccccc6n(Cc6ccccc6)c5c(-c5ccccc5)n4)nc(-c4ccccc4)c32)cc1 |  | 8.09
6 | CC(C)c1nc(CNCCCCCNCc2cc3c([nH]c4ccccc43)c(C(C)C)n2)cc2c1[nH]c1ccccc12.Cl | > 10000 | 
7 | Cc1nc(CNCCCCNCc2cc3c4ccccc4n(C(C)C)c3c(C)n2)cc2c3ccccc3n(C(C)C)c12 |  | 1.28
8 | COc1ccc(-c2nc(C=O)cc3c2[nH]c2ccccc23)cc1 |  | > 100
9 | CCn1c2ccccc2c2cc(CNCCCNCc3cc4c5ccccc5n(CC)c4c(-c4cc(OC)c(OC)c(OC)c4)n3)nc(-c3cc(OC)c(OC)c(OC)c3)c21 |  | 13.4
10 | Cn1c2ccccc2c2cc(CNCCCCNCc3cc4c5ccccc5n(C)c4c(-c4ccccc4)n3)nc(-c3ccccc3)c21 |  | 2.47
11 | Clc1ccc(-c2nc(CNCCCCCNCc3cc4c5ccccc5n(Cc5ccccc5)c4c(-c4ccc(Cl)cc4)n3)cc3c4ccccc4n(Cc4ccccc4)c23)cc1 |  | 4.32
12 | Cc1nc(CNCCCCNCc2cc3c4ccccc4n(C)c3c(C)n2)cc2c3ccccc3n(C)c12.Cl | > 10000 | 
13 | CCn1c2ccccc2c2cc(C=O)nc(-c3cc(OC)c(OC)c(OC)c3)c21 |  | > 100
14 | Cc1nc(CNCCCNCc2cc3c4ccccc4n(CCCc4ccccc4)c3c(C)n2)cc2c3ccccc3n(CCCc3ccccc3)c12 |  | 9.87
15 | Cc1nc(CNCCCCCCNCc2cc3c4ccccc4n(C)c3c(C)n2)cc2c3ccccc3n(C)c12 |  | 1.85
16 | CC(C)c1nc(CNCCCNCc2cc3c4ccccc4n(Cc4ccccc4)c3c(C(C)C)n2)cc2c3ccccc3n(Cc3ccccc3)c12.Cl | > 10000 | 
17 | Cl.Cn1c2ccccc2c2cc(CNCCCCNCc3cc4c5ccccc5n(C)c4c(-c4ccccc4)n3)nc(-c3ccccc3)c21 | > 10000 | 
18 | CCCCn1c2ccccc2c2cc(CNCCCCNCc3cc4c5ccccc5n(CCCC)c4c(-c4ccc(Cl)cc4)n3)nc(-c3ccc(Cl)cc3)c21 |  | 4.85
19 | Cc1nc(C=O)cc2c3ccccc3n(C)c12 |  | > 100
20 | Cc1nc(C=O)cc2c3ccccc3n(CC(C)C)c12 |  | > 100
21 | COc1ccc(-c2nc(CNCCCCCNCc3cc4c5ccccc5n(Cc5ccccc5)c4c(-c4ccc(OC)cc4)n3)cc3c4ccccc4n(Cc4ccccc4)c23)cc1 |  | 3.88
22 | CCCCn1c2ccccc2c2cc(CNCCCCNCc3cc4c5ccccc5n(CCCC)c4c(-c4ccc(Cl)cc4)n3)nc(-c3ccc(Cl)cc3)c21.Cl | > 10000 | 
23 | Cc1nc(CNCCCNCc2cc3c4ccccc4n(CC(C)C)c3c(C)n2)cc2c3ccccc3n(CC(C)C)c12 |  | 11.8
24 | COc1ccc(-c2nc(CNCCCCCNCc3cc4c5ccccc5n(Cc5ccccc5)c4c(-c4ccc(OC)cc4)n3)cc3c4ccccc4n(Cc4ccccc4)c23)cc1.Cl | > 10000 | 
25 | Clc1ccc(-c2nc(CNCCCCCCNCc3cc4c5ccccc5n(Cc5ccccc5)c4c(-c4ccc(Cl)cc4)n3)cc3c4ccccc4n(Cc4ccccc4)c23)cc1 |  | 3.63
26 | CCCCn1c2ccccc2c2cc(CNCCCCNCc3cc4c5ccccc5n(CCCC)c4c(C(C)C)n3)nc(C(C)C)c21 |  | 2.38

Row | SMILES | solubility [1] [µg/mL] | IC50 [2] [µM]
27 | Cl.c1ccc(Cn2c3ccccc3c3cc(CNCCCCCCNCc4cc5c6ccccc6n(Cc6ccccc6)c5c(-c5ccccc5)n4)nc(-c4ccccc4)c32)cc1 | > 10000 | 
28 | CCCCn1c2ccccc2c2cc(CNCCCCNCc3cc4c5ccccc5n(CCCC)c4c(C)n3)nc(C)c21 |  | 1.69
29 | Cc1nc(CNCCCNCc2cc3c4ccccc4n(Cc4ccccc4)c3c(C)n2)cc2c3ccccc3n(Cc3ccccc3)c12.Cl | > 10000 | 
30 | Cl.Clc1ccc(-c2nc(CNCCCCCCNCc3cc4c5ccccc5n(Cc5ccccc5)c4c(-c4ccc(Cl)cc4)n3)cc3c4ccccc4n(Cc4ccccc4)c23)cc1 | > 10000 | 
31 | CC(C)c1nc(C=O)cc2c3ccccc3n(Cc3ccccc3)c12 |  | > 100
32 | Cc1nc(CNCCCNCc2cc3c4ccccc4n(Cc4cccc(Cl)c4)c3c(C)n2)cc2c3ccccc3n(Cc3cccc(Cl)c3)c12 |  | 11.1
33 | COc1cc(-c2nc(CNCCCCCCNCc3cc4c5ccccc5n(CCCc5ccccc5)c4c(-c4cc(OC)c(OC)c(OC)c4)n3)cc3c4ccccc4n(CCCc4ccccc4)c23)cc(OC)c1OC |  | 1.69
34 | Cl.c1ccc(Cn2c3ccccc3c3cc(CNCCCNCc4cc5c6ccccc6n(Cc6ccccc6)c5c(-c5ccccc5)n4)nc(-c4ccccc4)c32)cc1 | > 10000 | 
35 | Cl.Clc1ccc(-c2nc(CNCCCCCNCc3cc4c5ccccc5n(Cc5ccccc5)c4c(-c4ccc(Cl)cc4)n3)cc3c4ccccc4n(Cc4ccccc4)c23)cc1 | > 10000 | 
36 | COc1ccc(-c2nc(CNCCCCNCc3cc4c([nH]c5ccccc54)c(-c4ccc(OC)cc4)n3)cc3c2[nH]c2ccccc23)cc1.Cl | > 10000 | 
37 | CCCCCCn1c2ccccc2c2cc(CNCCCCCCNCc3cc4c5ccccc5n(CCCCCC)c4c(-c4ccc(OC)cc4)n3)nc(-c3ccc(OC)cc3)c21 |  | 4.25
38 | COc1cc(-c2nc(C=O)cc3c4ccccc4n(CCCc4ccccc4)c23)cc(OC)c1OC |  | > 100
39 | CC(C)c1nc(CNCCCCCNCc2cc3c([nH]c4ccccc43)c(C(C)C)n2)cc2c1[nH]c1ccccc12 |  | > 20
40 | CCCCn1c2ccccc2c2cc(CNCCCNCc3cc4c5ccccc5n(CCCC)c4c(-c4ccc(Cl)cc4)n3)nc(-c3ccc(Cl)cc3)c21 |  | > 20
41 | COc1ccc(-c2nc(CNCCCCNCc3cc4c([nH]c5ccccc54)c(-c4ccc(OC)cc4)n3)cc3c2[nH]c2ccccc23)cc1 |  | 10.3
42 | Cc1nc(CNCCCCNCc2cc3c4ccccc4n(C(C)C)c3c(C)n2)cc2c3ccccc3n(C(C)C)c12.Cl | > 10000 | 
43 | Cc1nc(C=O)cc2c3ccccc3n(Cc3ccccc3)c12 |  | > 100
44 | O=Cc1cc2c3ccccc3n(Cc3ccccc3)c2c(-c2ccccc2)n1 |  | > 100
45 | COc1ccc(-c2nc(CNCCCCCCNCc3cc4c5ccccc5n(Cc5ccccc5)c4c(-c4ccc(OC)cc4)n3)cc3c4ccccc4n(Cc4ccccc4)c23)cc1 |  | 4.4
46 | CC(C)c1nc(C=O)cc2c1[nH]c1ccccc12 |  | > 100
47 | Cc1nc(C=O)cc2c3ccccc3n(Cc3cccc(Cl)c3)c12 |  | > 100
48 | CCCCn1c2ccccc2c2cc(CNCCCCNCc3cc4c5ccccc5n(CCCC)c4c(C(C)C)n3)nc(C(C)C)c21.Cl | > 10000 | 
49 | CCCCn1c2ccccc2c2cc(C=O)nc(C)c21 |  | > 100
50 | CCCCCCn1c2ccccc2c2cc(C=O)nc(-c3ccc(OC)cc3)c21 |  | > 100
51 | Cc1nc(CNCCCCNCc2cc3c4ccccc4n(CC(C)C)c3c(C)n2)cc2c3ccccc3n(CC(C)C)c12.Cl | > 10000 | 
52 | O=Cc1cc2c3ccccc3n(Cc3ccccc3)c2c(-c2ccc(Cl)cc2)n1 |  | > 100

Row | SMILES | solubility [1] [µg/mL] | IC50 [2] [µM]
53 | CCCCn1c2ccccc2c2cc(CNCCCCCNCc3cc4c5ccccc5n(CCCC)c4c(C(C)C)n3)nc(C(C)C)c21 |  | 1.4
54 | CCCCn1c2ccccc2c2cc(CNCCCNCc3cc4c5ccccc5n(CCCC)c4c(-c4ccc(Cl)cc4)n3)nc(-c3ccc(Cl)cc3)c21.Cl | > 10000 | 
55 | CCCCCCn1c2ccccc2c2cc(CNCCCCCCNCc3cc4c5ccccc5n(CCCCCC)c4c(-c4ccc(OC)cc4)n3)nc(-c3ccc(OC)cc3)c21.Cl | > 10000 | 
56 | Cn1c2ccccc2c2cc(CNCCCCCCNCc3cc4c5ccccc5n(C)c4c(-c4ccccc4)n3)nc(-c3ccccc3)c21 |  | 1.61
57 | COc1ccc(-c2nc(CNCCCCCNCc3cc4c5ccccc5n(C)c4c(-c4ccc(OC)cc4)n3)cc3c4ccccc4n(C)c23)cc1 |  | 1.1
58 | Cn1c2ccccc2c2cc(C=O)nc(-c3ccccc3)c21 |  | > 100
59 | CCCCn1c2ccccc2c2cc(CNCCCCCNCc3cc4c5ccccc5n(CCCC)c4c(C(C)C)n3)nc(C(C)C)c21.Cl | > 10000 | 
60 | CC(C)c1nc(CNCCCCCCNCc2cc3c4ccccc4n(Cc4ccccc4)c3c(C(C)C)n2)cc2c3ccccc3n(Cc3ccccc3)c12 |  | 2.03
61 | COc1ccc(-c2nc(C=O)cc3c4ccccc4n(C)c23)cc1 |  | > 100
62 | Cc1nc(CNCCCNCc2cc3c4ccccc4n(Cc4ccccc4)c3c(C)n2)cc2c3ccccc3n(Cc3ccccc3)c12 |  | 15.3
63 | CC(C)c1nc(CNCCCCCCNCc2cc3c4ccccc4n(Cc4ccccc4)c3c(C(C)C)n2)cc2c3ccccc3n(Cc3ccccc3)c12.Cl | > 10000 | 
64 | COc1ccc(-c2nc(CNCCCCNCc3cc4c5ccccc5n(C)c4c(-c4ccc(OC)cc4)n3)cc3c4ccccc4n(C)c23)cc1.Cl | > 10000 | 
65 | Cl.Cn1c2ccccc2c2cc(CNCCCCCCNCc3cc4c5ccccc5n(C)c4c(-c4ccccc4)n3)nc(-c3ccccc3)c21 | > 10000 | 
66 | Cc1nc(CNCCCCNCc2cc3c4ccccc4n(Cc4ccccc4)c3c(C)n2)cc2c3ccccc3n(Cc3ccccc3)c12 |  | 3.18
67 | COc1ccc(-c2nc(C=O)cc3c4ccccc4n(-c4ccccc4)c23)cc1 |  | > 100
68 | CCCCn1c2ccccc2c2cc(C=O)nc(C(C)C)c21 |  | > 100
69 | CCCCn1c2ccccc2c2cc(C=O)nc(-c3ccc(Cl)cc3)c21 |  | > 100
70 | Cc1nc(C=O)cc2c3ccccc3n(CCCc3ccccc3)c12 |  | > 100
71 | COc1ccc(-c2nc(CNCCCCNCc3cc4c5ccccc5n(C)c4c(-c4ccc(OC)cc4)n3)cc3c4ccccc4n(C)c23)cc1 |  | 2.94
72 | Cc1nc(C=O)cc2c3ccccc3n(C(C)C)c12 |  | > 100
73 | Cc1nc(CNCCCCNCc2cc3c4ccccc4n(C)c3c(C)n2)cc2c3ccccc3n(C)c12 |  | 2.76
74 | Cc1nc(CNCCCCNCc2cc3c4ccccc4n(CC(C)C)c3c(C)n2)cc2c3ccccc3n(CC(C)C)c12 |  | 2.56
75 | COc1ccc(/C=C\c2cc(OC)c(OC)c(OC)c2)cc1OP(=O)(O)O [FOSBRETABULIN] |  | 6.4
76 | c1ccc(Cn2c3ccccc3c3cc(CNCCCNCc4cc5c6ccccc6n(Cc6ccccc6)c5c(-c5ccccc5)n4)nc(-c4ccccc4)c32)cc1 |  | > 20
